The test system of experiment [1] is Pseudomonas aeruginosa. Kind of experiment: MIC of antibiotics by microdilution in liquid medium on plates (Example 18). In kind it is cell-based. Particulars: for MIC: Pseudomonas aeruginosa. On the procedure:
The unicellular living organism chosen for the trials is Pseudomonas aeruginosa (wild-type strain originating from hospital sources).
The same methodology as for Examples 11 and 12 was follows. Bacteriostatic analyses were performed with a number of antibiotics belonging to benzylpenicillins, and aminopenicillins, and first and second generation cephalosporins, namely:
The determination of the MIC was carried out by the microdilution method in liquid medium on plates. Aqueous solutions of each antibiotic are prepared in MUELLER HINION broth, to obtain dilutions in a geometric ratio of 2. The solvent is sterile double-distilled water.
The preparation of the bacterial inoculum is made with a culture of Pseudomonas aeruginosa, with agitation on a water bath at 37° C. for 4 to 6 hours, giving 10^6 bacteria/ml.
Three trials were performed per antibiotic and per bacterial inoculum. The trials were performed first with the antibiotics alone (trials a).sctn., and then with the addition of a dose of 1 mg/l of an aqueous solution of lithium fluoride (trials b).sctn. to the dilution of each one in every cup of every plate.
A general note: In broth dilution the organism is exposed to a series of concentrations in liquid medium.

Experiment [2] has as its system Pseudomonas aeruginosa. In words: Resistance of Pseudomonas aeruginosa to antiseptics in terms of water hardness and proteins.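 Further: R means colony growth observed and S means no significant growth; key: R: resistant (a growth of colonies was observed); S: sensitive (no significant growth was observed).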 The experiment is classed as cell-based. On the procedure: The resistance of Pseudomonas aeruginosa to various reputedly bactericidal active principles or commercial antiseptics was studied in terms of the hardness of the water and the presence or absence of proteins. The same trial was carried out on the foaming paste according to the invention (see Example 15).

[3] abbreviates: + LiF 1 mg/l, strain lic R βLac^+ OXA, read-out: MIC (average MIC value).
[4] abbreviates: + LiF 1 mg/l, strain lic R βLac^+ PSE, read-out: MIC (average MIC value).
[5] abbreviates: + LiF 1 mg/l, strain lic R βLac^+ TEM, read-out: MIC (average MIC value).
Setting [6] is: + LiF 1 mg/l, strain lic R βLac^+ cephalosporinase, read-out: MIC (average MIC value).
[7] abbreviates: + LiF 1 mg/l, strain lic S βLac^- (first column), read-out: MIC (average MIC value).
The mark [8] stands for this setting: + LiF 1 mg/l, strain lic S βLac^- (second column), read-out: MIC (average MIC value).
Setting [9] is: alone, strain lic R βLac^+ OXA, read-out: MIC (average MIC value).
The mark [10] stands for this setting: alone, strain lic R βLac^+ PSE, read-out: MIC (average MIC value).
Where [11] appears, read: alone, strain lic R βLac^+ TEM, read-out: MIC (average MIC value).
Where [12] appears, read: alone, strain lic R βLac^+ cephalosporinase, read-out: MIC (average MIC value).
Setting [13] is: alone, strain lic S βLac^- (first column), read-out: MIC (average MIC value).
Where [14] appears, read: alone, strain lic S βLac^- (second column), read-out: MIC (average MIC value).
[15] abbreviates: 0.2 ml inoculum, contact time 10 mn, distilled water, P+.
The mark [16] stands for this setting: 0.2 ml inoculum, contact time 10 mn, distilled water, P-.
Setting [17] is: 0.2 ml inoculum, contact time 10 mn, hard water, P+.
[18] abbreviates: 0.2 ml inoculum, contact time 10 mn, hard water, P-.
Setting [19] is: 0.4 ml inoculum, contact time 20 mn, distilled water, P+.
Where [20] appears, read: 0.4 ml inoculum, contact time 20 mn, distilled water, P-.
The mark [21] stands for this setting: 0.4 ml inoculum, contact time 20 mn, hard water, P+.
Setting [22] is: 0.4 ml inoculum, contact time 20 mn, hard water, P-.
The mark [23] stands for this setting: 0.6 ml inoculum, contact time 30 mn, distilled water, P+.
Where [24] appears, read: 0.6 ml inoculum, contact time 30 mn, distilled water, P-.
Setting [25] is: 0.6 ml inoculum, contact time 30 mn, hard water, P+.
Where [26] appears, read: 0.6 ml inoculum, contact time 30 mn, hard water, P-.

Consider nine compounds from US5800838A, “Composition that inhibits or destroys at least one unicellular living organism containing fluorine F- and Lithium li+” (priority 1987, dated 1998).

Like-named read-outs stand apart in the source and are kept apart here.

`CC1(C)S[C@@H]2[C@H](NC(=O)[C@H](NC(=O)c3cnc4cccnc4c3O)c3ccccc3)C(=O)N2[C@H]1C(=O)O` [APALCILLIN, apalcillin]: the MIC in the experiment with Pseudomonas aeruginosa [1] (setting [3]) worked out at 32 µg/mL; in the experiment on Pseudomonas aeruginosa [1] (setting [4]), 32 µg/mL; with Pseudomonas aeruginosa [1] (setting [5]) it was 8 µg/mL; in the experiment on Pseudomonas aeruginosa [1] (setting [6]), 16 µg/mL; in the experiment on Pseudomonas aeruginosa [1] (setting [7]) it was 2 µg/mL; in the experiment on Pseudomonas aeruginosa [1] (setting [8]), 8 µg/mL. For the same compound, the MIC in the experiment with Pseudomonas aeruginosa [1] (setting [9]) is 32 µg/mL; in the experiment with Pseudomonas aeruginosa [1] (setting [10]), 64 µg/mL; in the experiment with Pseudomonas aeruginosa [1] (setting [11]), 16 µg/mL; in the experiment with Pseudomonas aeruginosa [1] (setting [12]), 16 µg/mL; in the experiment with Pseudomonas aeruginosa [1] (setting [13]), 4 µg/mL; with Pseudomonas aeruginosa [1] (setting [14]) it was 16 µg/mL.
In the case of `CC1(C)S[C@@H]2[C@H](NC(=O)[C@H](NC(=O)N3CCNC3=O)c3ccccc3)C(=O)N2[C@H]1C(=O)O` [AZLOCILLIN, azlocillin], the MIC with Pseudomonas aeruginosa [1] (setting [3]) is 64 µg/mL; in the experiment with Pseudomonas aeruginosa [1] (setting [4]), 64 µg/mL; in the experiment on Pseudomonas aeruginosa [1] (setting [5]), 64 µg/mL; with Pseudomonas aeruginosa [1] (setting [6]), 128 µg/mL; in the experiment on Pseudomonas aeruginosa [1] (setting [7]), 4 µg/mL; in the experiment with Pseudomonas aeruginosa [1] (setting [8]) it was 32 µg/mL. Also, the MIC was 64 µg/mL in the experiment with Pseudomonas aeruginosa [1] (setting [9]); 64 µg/mL in the experiment with Pseudomonas aeruginosa [1] (setting [10]); 64 µg/mL in the experiment with Pseudomonas aeruginosa [1] (setting [11]); 128 µg/mL in the experiment on Pseudomonas aeruginosa [1] (setting [12]); 8 µg/mL in the experiment with Pseudomonas aeruginosa [1] (setting [13]); 32 µg/mL with Pseudomonas aeruginosa [1] (setting [14]).
As for `CC(C)(O/N=C(\C(=O)N[C@@H]1C(=O)N2C(C(=O)[O-])=C(C[n+]3ccccc3)CS[C@H]12)c1csc(N)n1)C(=O)O` [CAFTAZIDIME, ceftazidime], the MIC in the experiment on Pseudomonas aeruginosa [1] (read-out: MIC (average MIC value), + LiF 1 mg/l, strain lic R βLac^+ OXA) was 4 µg/mL; with Pseudomonas aeruginosa [1] (read-out: MIC (average MIC value), + LiF 1 mg/l, strain lic R βLac^+ PSE), 2 µg/mL; in the experiment on Pseudomonas aeruginosa [1] (read-out: MIC (average MIC value), + LiF 1 mg/l, strain lic R βLac^+ TEM), 4 µg/mL; in the experiment on Pseudomonas aeruginosa [1] (read-out: MIC (average MIC value), + LiF 1 mg/l, strain lic R βLac^+ cephalosporinase), 32 µg/mL; with Pseudomonas aeruginosa [1] (read-out: MIC (average MIC value), + LiF 1 mg/l, strain lic S βLac^- (first column)), 2 µg/mL; in the experiment on Pseudomonas aeruginosa [1] (read-out: MIC (average MIC value), + LiF 1 mg/l, strain lic S βLac^- (second column)), 4 µg/mL. Also, the MIC with Pseudomonas aeruginosa [1] (read-out: MIC (average MIC value), alone, strain lic R βLac^+ OXA) is 4 µg/mL; in the experiment with Pseudomonas aeruginosa [1] (read-out: MIC (average MIC value), alone, strain lic R βLac^+ PSE) it was 2 µg/mL; with Pseudomonas aeruginosa [1] (read-out: MIC (average MIC value), alone, strain lic R βLac^+ TEM), 4 µg/mL; in the experiment with Pseudomonas aeruginosa [1] (read-out: MIC (average MIC value), alone, strain lic R βLac^+ cephalosporinase), 32 µg/mL; in the experiment on Pseudomonas aeruginosa [1] (read-out: MIC (average MIC value), alone, strain lic S βLac^- (first column)) it was 4 µg/mL; in the experiment on Pseudomonas aeruginosa [1] (read-out: MIC (average MIC value), alone, strain lic S βLac^- (second column)), 4 µg/mL.
`NC(=O)c1cc[n+](CC2=C(C(=O)O)N3C(=O)[C@@H](NC(=O)[C@@H](c4ccccc4)S(=O)(=O)[O-])[C@H]3SC2)cc1` [CEFSULODIN, cefsulodin]: the MIC was determined as 16 µg/mL in the experiment with Pseudomonas aeruginosa [1] (setting [3]); 16 µg/mL with Pseudomonas aeruginosa [1] (setting [4]); 32 µg/mL in the experiment on Pseudomonas aeruginosa [1] (setting [5]); 64 µg/mL in the experiment on Pseudomonas aeruginosa [1] (setting [6]); 4 µg/mL in the experiment with Pseudomonas aeruginosa [1] (setting [7]); 16 µg/mL with Pseudomonas aeruginosa [1] (setting [8]). Moreover, the MIC in the experiment on Pseudomonas aeruginosa [1] (setting [9]) stood at 16 µg/mL; in the experiment with Pseudomonas aeruginosa [1] (setting [10]), 32 µg/mL; in the experiment with Pseudomonas aeruginosa [1] (setting [11]), 32 µg/mL; in the experiment on Pseudomonas aeruginosa [1] (setting [12]), 64 µg/mL; with Pseudomonas aeruginosa [1] (setting [13]), 4 µg/mL; in the experiment on Pseudomonas aeruginosa [1] (setting [14]) it was 16 µg/mL.
With `CO/N=C(\C(=O)N[C@@H]1C(=O)N2C(C(=O)O)=C(CSc3nc(=O)c(=O)[nH]n3C)CS[C@H]12)c1csc(N)n1` [CEFTRIAXONE, ceftriaxone], the MIC in the experiment with Pseudomonas aeruginosa [1] (setting [3]) stood at 32 µg/mL; with Pseudomonas aeruginosa [1] (setting [4]), 16 µg/mL; in the experiment with Pseudomonas aeruginosa [1] (setting [5]), 32 µg/mL; in the experiment on Pseudomonas aeruginosa [1] (setting [6]), 128 µg/mL; with Pseudomonas aeruginosa [1] (setting [7]) it was 8 µg/mL; in the experiment with Pseudomonas aeruginosa [1] (setting [8]), 16 µg/mL. In addition, the MIC was determined as 32 µg/mL in the experiment on Pseudomonas aeruginosa [1] (setting [9]); 32 µg/mL in the experiment on Pseudomonas aeruginosa [1] (setting [10]); 32 µg/mL in the experiment with Pseudomonas aeruginosa [1] (setting [11]); 256 µg/mL in the experiment with Pseudomonas aeruginosa [1] (setting [12]); 16 µg/mL in the experiment with Pseudomonas aeruginosa [1] (setting [13]); 32 µg/mL in the experiment on Pseudomonas aeruginosa [1] (setting [14]).
`C=O` [Formaldehyde]: the resistance entry in the experiment with Pseudomonas aeruginosa [2] (setting [15]), in the experiment with Pseudomonas aeruginosa [2] (setting [16]), in the experiment on Pseudomonas aeruginosa [2] (setting [17]), in the experiment with Pseudomonas aeruginosa [2] (setting [18]), with Pseudomonas aeruginosa [2] (setting [19]) and in the experiment with Pseudomonas aeruginosa [2] (setting [20]) was “S” in each case. In addition, the resistance entry in the experiment with Pseudomonas aeruginosa [2] (setting [21]), in the experiment with Pseudomonas aeruginosa [2] (setting [22]), in the experiment with Pseudomonas aeruginosa [2] (setting [23]), in the experiment on Pseudomonas aeruginosa [2] (setting [24]), in the experiment on Pseudomonas aeruginosa [2] (setting [25]) and with Pseudomonas aeruginosa [2] (setting [26]) was “S” throughout.
As for `CCN1CCN(C(=O)N[C@@H](C(=O)N[C@@H]2C(=O)N3[C@@H]2SC(C)(C)[C@@H]3C(=O)O)c2ccccc2)C(=O)C1=O` [PIPERACILLIN, piperacillin], the MIC in the experiment with Pseudomonas aeruginosa [1] (setting [3]) came out at 64 µg/mL; in the experiment with Pseudomonas aeruginosa [1] (setting [4]), 64 µg/mL; in the experiment on Pseudomonas aeruginosa [1] (setting [5]) it was 64 µg/mL; in the experiment on Pseudomonas aeruginosa [1] (setting [6]), 128 µg/mL; with Pseudomonas aeruginosa [1] (setting [7]) it was 8 µg/mL; with Pseudomonas aeruginosa [1] (setting [8]) it was 8 µg/mL. Also, the MIC with Pseudomonas aeruginosa [1] (setting [9]) was found to be 64 µg/mL; in the experiment with Pseudomonas aeruginosa [1] (setting [10]), 128 µg/mL; with Pseudomonas aeruginosa [1] (setting [11]) it was 64 µg/mL; in the experiment with Pseudomonas aeruginosa [1] (setting [12]) it was 128 µg/mL; in the experiment on Pseudomonas aeruginosa [1] (setting [13]), 8 µg/mL; with Pseudomonas aeruginosa [1] (setting [14]), 16 µg/mL.
For `O=S(=O)([O-])[O-].[Zn+2]` [Zinc sulphate], the resistance result with Pseudomonas aeruginosa [2] (setting [15]), in the experiment on Pseudomonas aeruginosa [2] (setting [16]), in the experiment with Pseudomonas aeruginosa [2] (setting [17]), in the experiment on Pseudomonas aeruginosa [2] (setting [18]), in the experiment on Pseudomonas aeruginosa [2] (setting [19]) and in the experiment on Pseudomonas aeruginosa [2] (setting [20]) was “R” each time. For the same compound, the resistance entry with Pseudomonas aeruginosa [2] (setting [21]), in the experiment on Pseudomonas aeruginosa [2] (setting [22]), in the experiment on Pseudomonas aeruginosa [2] (setting [23]), with Pseudomonas aeruginosa [2] (setting [24]), in the experiment on Pseudomonas aeruginosa [2] (setting [25]) and in the experiment on Pseudomonas aeruginosa [2] (setting [26]) was “R” each time.
Consider `CC1(C)S[C@@H]2[C@H](NC(=O)[C@H](C(=O)O)c3ccsc3)C(=O)N2[C@H]1C(=O)O` [ticarcillin], for which, in the experiment on Pseudomonas aeruginosa [1], the “number of strains resistant, of 958 strains tested” value came to 235. The MIC in the experiment on Pseudomonas aeruginosa [1] (setting [9]) came to 512 µg/mL; in the experiment with Pseudomonas aeruginosa [1] (setting [10]), 4100 µg/mL; in the experiment on Pseudomonas aeruginosa [1] (setting [11]), 1020 µg/mL; with Pseudomonas aeruginosa [1] (setting [12]), 256 µg/mL; in the experiment on Pseudomonas aeruginosa [1] (setting [13]) it was 32 µg/mL; with Pseudomonas aeruginosa [1] (setting [14]), 512 µg/mL.
